Values of other authors as cited in patent publication US9889198B2 (KemPharm, Inc., priority 2010, dated 2018).
Each block holds one compound with its values, some of them ahead of it.

Key:
5-HT1A receptor = biological target: T1, 5-HT1A receptor (Homo sapiens, UniProt P08908); conditions: relative to quetiapine
T1 sequence (P08908 1-422): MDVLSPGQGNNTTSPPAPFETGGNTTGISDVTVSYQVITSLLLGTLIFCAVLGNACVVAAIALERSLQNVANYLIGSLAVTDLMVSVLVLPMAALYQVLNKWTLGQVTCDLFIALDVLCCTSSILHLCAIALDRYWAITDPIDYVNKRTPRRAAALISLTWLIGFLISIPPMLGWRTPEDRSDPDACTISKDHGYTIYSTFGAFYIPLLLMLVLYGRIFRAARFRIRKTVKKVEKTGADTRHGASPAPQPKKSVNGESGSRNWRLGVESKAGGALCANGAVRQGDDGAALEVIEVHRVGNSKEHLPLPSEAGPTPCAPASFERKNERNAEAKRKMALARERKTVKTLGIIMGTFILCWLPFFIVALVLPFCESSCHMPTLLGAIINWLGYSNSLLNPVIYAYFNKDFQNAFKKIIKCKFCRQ

human NET = human NET (Homo sapiens, UniProt P23975); conditions: relative to quetiapine
human NET, sequence (P23975 whole entry): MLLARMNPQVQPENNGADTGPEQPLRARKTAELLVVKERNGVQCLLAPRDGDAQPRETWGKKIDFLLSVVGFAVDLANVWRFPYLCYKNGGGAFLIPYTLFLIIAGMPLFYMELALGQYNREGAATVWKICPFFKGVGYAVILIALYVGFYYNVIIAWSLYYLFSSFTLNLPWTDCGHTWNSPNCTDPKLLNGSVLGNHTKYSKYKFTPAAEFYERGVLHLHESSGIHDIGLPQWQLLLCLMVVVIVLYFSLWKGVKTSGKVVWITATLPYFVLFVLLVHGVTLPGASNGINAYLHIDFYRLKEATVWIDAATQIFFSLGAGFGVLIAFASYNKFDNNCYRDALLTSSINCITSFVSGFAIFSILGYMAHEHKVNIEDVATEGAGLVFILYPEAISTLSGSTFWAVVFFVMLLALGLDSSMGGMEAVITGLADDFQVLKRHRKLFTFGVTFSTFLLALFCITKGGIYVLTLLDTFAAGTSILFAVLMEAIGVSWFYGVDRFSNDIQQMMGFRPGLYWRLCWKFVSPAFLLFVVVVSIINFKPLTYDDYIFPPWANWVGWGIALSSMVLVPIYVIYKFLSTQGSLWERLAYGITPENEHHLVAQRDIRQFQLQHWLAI

leptin release = conditions: chronic oral administration, 6 weeks

Structure (SMILES): c1ccc2c(c1)N=C(N1CCNCC1)c1ccccc1S2 [N-desalkyl-quetiapine]
- more potent than quetiapine at the 5-HT1A receptor (5-HT1A receptor): 10 fold
- higher avidity for inhibiting human NET than quetiapine (human NET): about 100 fold

Structure (SMILES): CCCC(CCC)C(=O)O [Valproic acid, 2-propylpentanoic acid]
- response rate in acute mania (acute mania patients): around 50%
- response rate in bipolar depression (bipolar depression): ~30%

- increase in leptin release (leptin release): about 37%
Structure (SMILES): OCCOCCN1CCN(C2=Nc3ccccc3Sc3ccccc32)CC1 [quetiapine, 2-(2-(4-(dibenzo[b,f][1,4]thiazepin-11-yl)piperazin-1-yl)ethoxy)ethanol]
